Assay results reported in patent US12371421B2, “Solid forms of a PARP7 inhibitor” (Ribon Therapeutics, Inc., priority 2019, dated 2025).

How the values were obtained:
[1] = system: A101D; experiment: Cancer cell growth inhibition (CellTiter-Glo); format: cell-based; details: Homo sapiens, melanoma, 144 hours
Experimental: (§1) Cells were plated into 384-well plates at a pre-specified density in fetal bovine serum-containing media. Cells were treated with compound or vehicle (DMSO) 24 hrs later, and a day zero plate was collected for analysis. Test compound plates were incubated continuously for 144 hours before cells and cell growth was assessed using a luminescent cell viability assay (CellTiter-Glo, Promega). The GI50 was determined by correcting for the cell count at time zero (time of treatment) and plotting data as percent growth relative to vehicle-treated cells.

[2] = system: T84; experiment: Cancer cell growth inhibition (CellTiter-Glo); format: cell-based; details: Homo sapiens; T84, colon adenocarcinoma; 144 hours
Experimental: as §1

[3] = system: NCI-H1648; experiment: Cancer cell growth inhibition (CellTiter-Glo); format: cell-based; details: Homo sapiens; NCI-H1648, lung adenocarcinoma; 144 hours
Experimental: as §1

[4] = system: MSTO-211H; experiment: Cancer cell growth inhibition (CellTiter-Glo); format: cell-based; details: Homo sapiens, biphasic mesothelioma, 144 hours
Experimental: as §1

[5] = system: NCI-H2291; experiment: Cancer cell growth inhibition (CellTiter-Glo); format: cell-based; details: Homo sapiens; NCI-H2291, lung adenocarcinoma; 144 hours
Experimental: as §1

[6] = system: TE-11; experiment: Cancer cell growth inhibition (CellTiter-Glo); format: cell-based; details: Homo sapiens; TE-11, esophageal squamous cell carcinoma; 144 hours
Experimental: as §1

[7] = system: KMRC-3; experiment: Cancer cell growth inhibition (CellTiter-Glo); format: cell-based; details: KMRC-3, clear cell renal carcinoma; 144 hours
Experimental: as §1

[8] = system: TUHR10TKB; experiment: Cancer cell growth inhibition (CellTiter-Glo); format: cell-based; details: renal cell carcinoma, 144 hours
Experimental: as §1

[9] = system: TYK-nu; experiment: Cancer cell growth inhibition (CellTiter-Glo); format: cell-based; details: high grade ovarian serious adenocarcinoma, 144 hours
Experimental: as §1

[10] = system: YD-10B; experiment: Cancer cell growth inhibition (CellTiter-Glo); format: cell-based; details: tongue squamous cell carcinoma, 144 hours
Experimental: as §1

[11] = system: CFPAC-1; experiment: Cancer cell growth inhibition (CellTiter-Glo); format: cell-based; details: Homo sapiens; CFPAC-1, pancreatic ductal adenocarcinoma; 144 hours
Experimental: as §1

[12] = system: NUGC-3; experiment: Cancer cell growth inhibition (CellTiter-Glo); format: cell-based; details: Homo sapiens; NUGC-3, gastric adenocarcinoma; 144 hours
Experimental: as §1

[13] = system: SK-MEL-2; experiment: Cancer cell growth inhibition (CellTiter-Glo); format: cell-based; details: Homo sapiens; SK-MEL-2, malignant melanoma; 144 hours
Experimental: as §1

[14] = system: NCI-H2066; experiment: Cancer cell growth inhibition (CellTiter-Glo); format: cell-based; details: NCI-H2066, squamous cell lung carcinoma; 144 hours
Experimental: as §1

[15] = system: IA-LM; experiment: Cancer cell growth inhibition (CellTiter-Glo); format: cell-based; details: large cell lung carcinoma, 144 hours
Experimental: as §1

[16] = system: GCT; experiment: Cancer cell growth inhibition (CellTiter-Glo); format: cell-based; details: Homo sapiens, undifferentiated pleiomorphic sarcoma, 144 hours
Experimental: as §1

[17] = system: COR-L105; experiment: Cancer cell growth inhibition (CellTiter-Glo); format: cell-based; details: Homo sapiens; COR-L105, lung adenocarcinoma; 144 hours
Experimental: as §1

[18] = system: HPAF-II; experiment: Cancer cell growth inhibition (CellTiter-Glo); format: cell-based; details: Homo sapiens, pancreatic adenocarcinoma, 144 hours
Experimental: as §1

[19] = system: MCAS; experiment: Cancer cell growth inhibition (CellTiter-Glo); format: cell-based; details: ovarian mucinous cystadenocarcinoma, 144 hours
Experimental: as §1

[20] = system: KALS-1; experiment: Cancer cell growth inhibition (CellTiter-Glo); format: cell-based; details: Homo sapiens; KALS-1, glioblastoma; 144 hours
Experimental: as §1

[21] = system: CT26 colon cancer syngeneic model; experiment: Tumor growth in murine CT26 colon cancer syngeneic model; format: in vivo, BALB/c mice; details: BID 125-500 mg/kg or QD 500 mg/kg for 21 days; P<0.0001 vs vehicle (Day 16)
Experimental: For the CT26 study, BALB/c mice were inoculated subcutaneously in the right flank with CT26 cells for tumor development. After 5 days of cell inoculation, mice with 36-79 mm^3 tumors were randomized into treatment groups with mean tumor volumes of 54 mm^3. […] Tumor volumes were determined by manual calipers every 2-3 days. Mean tumor volume and SEM are plotted. BID: twice a day; PO: per oral administration; QD: once a day; SC: per subcutaneous administration. […] Statistical analysis for tumor growth inhibition (TGI) was performed when at least 8 of the 10 mice were remaining in the vehicle group (Day 16). Statistical significance is calculated using two-way ANOVA followed by Bonferroni post-tests in which the treatment groups were compared to vehicle control (**** P<0.0001).

- GI50 [1]: ≥ 1 µM
- GI50 [2]: ≥ 1 µM
- GI50 [3]: ≥ 1 µM
- GI50 [4]: ≥ 1 µM
- GI50 [5]: ≥ 1 µM
- GI50 [6]: ≥ 1 µM
- GI50 [7]: ≥ 1 µM
- GI50 [8]: < 0.1 µM
- GI50 [9]: < 0.1 µM
- GI50 [10]: ≥ 1 µM
- GI50 [11]: 0.1 to 1 µM
- GI50 [12]: ≥ 1 µM
- GI50 [13]: ≥ 1 µM
- GI50 [14]: ≥ 1 µM
- GI50 [15]: < 0.1 µM
- GI50 [16]: < 0.1 µM
- GI50 [17]: 0.1 to 1 µM
- GI50 [18]: ≥ 1 µM
- GI50 [19]: ≥ 1 µM
- GI50 [20]: ≥ 1 µM
Compound: C[C@@H](COCCC(=O)N1CCN(c2ncc(C(F)(F)F)cn2)CC1)Nc1cn[nH]c(=O)c1C(F)(F)F [Compound 1, 5-[[(2S)-1-(3-oxo-3-[4-[5-(trifluoromethyl)pyrimidin-2-yl]piperazin-1-yl]propoxy)propan-2-yl]amino]-4-(trifluoromethyl)-2,3-dihydropyridazin-3-one]
- Tumor growth (tumor volume) vs vehicle [21]: significantly reduces tumor growth
